Test results published in PMC5614861 (Organic & biomolecular chemistry, 2017).
Several values for one entry are separate records, joined by “and”; a condition that tells them apart may be missing. Identical values can stand only once. Numbered stars: 1 amine (or outer) side, 2 acyl side, 3 side chain; on linkers, the order of the positions; unused ones are H or OH. Bridge positions count the residues as written; N and C are the ends. Square brackets hold non-standard residues; d marks the D form. Peptide text beside a SMILES is read from it. X2 = O=C([C@@H]1C[C@H](n2cc(C3=CC=C[CH]3[Fe][CH]3C=CC=C3)nn2)CN1[*:1])[*:2]; X1 = O=C([C@@H]1C[C@H](n2cc(-c3ccc(-c4cccs4)cc3)nn2)CN1[*:1])[*:2]

How the values were obtained:
HIV-1Bal.01 = assay type: cell-based; conditions: cutoff 10 μM
[1] = biological target: monomeric wild type gp120 YU-2 (Human immunodeficiency virus type 1 group M subtype B, UniProt P35961); experiment: Isothermal titration calorimetry; assay type: binding, HIV-1; conditions: ITC, 25°C, 1× PBS pH 7.3
[2] = biological target: HIV-1 YU-2 gp120 binding to sCD4 (Human immunodeficiency virus type 1 group M subtype B, UniProt P35961); experiment: SPR competition assay, inhibition of gp120 binding to CD4; conditions: 250 nM YU-2 gp120, 25°C, PBS pH 7.4, triplicate
HOS.T4.R5 cells = experiment: Cytotoxicity / cell viability assay; assay type: cell-based; conditions: WST-1, 24 h post-exposure, highest concentration used 100 μM

| Compound | Activity designation in HIV-1Bal.01 infection inhibition assay (HIV-1Bal.01) | ΔH [1] | ΔS [1] [kcal/mol] | −TΔS [1] [kcal/mol] | Inhibition of gp120 binding to CD4 [2] | Cytotoxicity (cell viability) (HOS.T4.R5 cells) |
| --- | --- | --- | --- | --- | --- | --- |
| cPT 11 | weak (the compound showed weak inhibition (less than 50%) at 10 μM) | – | – | – | – | – |
| CC[C@H](C)[C@@H]1NC(=O)[C@H](CC(N)=O)NC(=O)[C@@H](N)CC(=O)NCCCC[C@@H](C(N)=O)NC(=O)[C@H](Cc2c[nH]c3ccccc23)NC(=O)[C@@H]2C[C@H](n3cc(-c4ccc(-c5cccs5)cc4)nn3)CN2C1=O [cPT 36] (H-DNI[X1]WK-NH2; lactam 1-6) | – | -4.07 ± 0.06 kcal/mol | 0.0159 | -4.74 | inhibited | no cytotoxicity was detected |
| CC[C@H](C)[C@@H]1NC(=O)[C@H](CC(N)=O)NC(=O)[C@@H](N)CC(=O)NCCCC[C@@H](C(N)=O)NC(=O)[C@H](Cc2c[nH]c3ccccc23)NC(=O)[C@@H]2C[C@H](n3cc(C4=CC=C[CH]4[Fe][CH]4C=CC=C4)nn3)CN2C1=O (stereo partly drawn) [cPT 3] (H-DNI[X2]WK-NH2; lactam 1-6) | – | -5.96 kcal/mol and -5.96 ± 0.13 kcal/mol | 0.00922 | -2.75 | – | – |
